# Assay results taken from publication PMC5669199, “CM352 Reduces Brain Damage and Improves Functional Recovery in a Rat Model of Intracerebral Hemorrhage” (Journal of the American Heart Association: Cardiovascular …, 2017).
# Tests used:
# [1] = test system: cellular fibronectin; experiment: Plasma cellular fibronectin ELISA after ICH; assay type: in vivo, rat; conditions: 1 mg/kg iv after ICH; data not shown
# Method: (§1) Blood samples (0.5 mL) were drawn from the tail vein before surgery, immediately after surgery, and at 1 hour, 3 hours, 24 hours, and 14 days. Citrate or EDTA plasma was obtained by centrifugation, and samples were stored at −80°C. Enzyme‐linked immunosorbent assay was used to measure interleukin‐6 (IL‐6, ref. KRC0061, Life Technologies, Thermo Fisher Scientific, Waltham, MA), cellular fibronectin (ref. MBS007311, MyBioSource, San Diego, CA), and thrombin‐antithrombin complex (Enzygnost TAT, ref. OWMG15, Siemens Healthcare, Erlangen, Germany) in plasma, as biomarkers of inflammation, cellular damage, and hypercoagulability, respectively. The intra‐assay and interassay coefficients of variation for all molecular markers were <10%.
# [2] = biological target: bacterial collagenase type VII; experiment: Collagenase activity assay (FALGPA substrate); assay type: biochemical; conditions: tested 10 nmol/L to 10 μmol/L; no significant effect
# Method: Enzymatic assay of collagenase was performed using FALGPA (Sigma‐Aldrich Corp, St. Louis, MO) as substrate, according to the manufacturer's recommendations. Briefly, proteolysis of 1 mmol/L FALGPA by 2 U/mL bacterial collagenase type VII (Sigma‐Aldrich Corp, St. Louis, MO) in reaction buffer (50 mmol/L Tricine; 10 mmol/L CaCl2; 400 mmol/L NaCl) was monitored spectrophotometrically (345 nm) for 5 minutes, in the presence of CM352, phenanthroline, or vehicle.
# [3] = test system: thrombin‐antithrombin complex; experiment: Plasma thrombin‐antithrombin complex ELISA after ICH; assay type: in vivo, rat; conditions: 1 mg/kg iv after ICH; data not shown
# Method: as §1
# [4] = test system: rat model of collagenase‐induced ICH; experiment: Bederson scale in ICH rat model; assay type: in vivo
# Method: On the other hand, neurological deficit was evaluated with the Bederson scale,24 ranging from 0 (asymptomatic) to 8 (severe deficit), which included the following items: spontaneous movement, spontaneous rotation, spontaneous flexion of the contralateral forelimb, edge detection, turn after tail suspension, reflection of protection. Behavioral studies were performed at baseline (before surgery) and at 24 hours and 14 days after ICH during the darkness cycle. An experienced investigator, blind to treatment and neuroimaging data, analyzed the behavioral tests.
# [5] = test system: wide panel of metalloenzymes, including cathepsins, caspases, kalikreins, and neutrophil proteases; set-up: method as in PMID 25686022; conditions: cited from earlier work
# [6] = Activated partial thromboplastin time in plasma after ICH; assay type: in vivo, rat; conditions: n=3
# Method: Prothrombin time (PT) and activated partial thromboplastin time (aPTT) were measured with STA‐Neoplastin R and PTT reagents (STA‐Compact, Stago, Barcelona, Spain). PT results were expressed as percentage of the standard value, and aPTT results were expressed in seconds.
# [7] = Pharmacokinetics of CM352 in rats after intravenous administration; assay type: in vivo; conditions: rat, 1 mg/kg intravenous
# Method: CM352 solutions were prepared by dissolving the solid in saline. A drug dosage of 1 mg/kg was administered as a single intravenous injection in the femoral vein. Blood was collected into citrated tubes, and plasma was obtained by 2‐step centrifugation: first at 600 g for 10 minutes and then at 18 000 g for 2 minutes. Plasma samples were stored at −80°C until analysis. CM352 was measured in plasma samples using a Xevo‐TQ MS triple quadrupole mass spectrometer with an electrospray ionization source and an Acquity UPLC (Waters, Manchester, UK) as previously reported.20 Briefly, after chromatographic separation, the compound was detected using multiple reaction monitoring. Quantification was achieved by external calibration using matrix‐matched standards prepared by adding the appropriate volume of diluted solutions of the compound (in methanol/water 50:50, v:v) to aliquots of 50 μL blank plasma. Pharmacokinetic parameters were obtained by fitting the blood concentration‐time data to a bicompartmental model with the WinNonlin software (Pharsight, Mountain View, CA).
# [8] = test system: rat model of collagenase‐induced ICH; experiment: Cylinder test (laterality index) in ICH rat model; assay type: in vivo; conditions: 24 hours and 14 days, all P<0.01 vs control
# Method: Following STAIR criteria, animal models must show neurological and functional deficits in line with the produced lesion. The model of collagenase‐induced hemorrhage primarily damages the striatum, producing a small forelimb paresis contralateral to the lesion. Sensorimotor deficits after ischemic insult were assessed using the cylinder test, as previously described.23 This test evaluates limb asymmetry during the exploratory activity. Each animal was put in a cylinder with a 20‐cm‐diameter transparent base. A video camera was located under this transparent cylinder for recording the vertical exploratory movements of the animal with its anterior limbs for 2 to 10 minutes, depending on movement grade. For image recording and analysis, VirtulDub software was used. Analyzed behaviors were the numbers of times that the animal touched the cylinder wall and independent use of each limb in contact with the cylinder wall in each upward movement. The laterality index was calculated (the number of times that the animal touched the cylinder with the right leg during the ascendant movement by the number of times that the animals touched with each leg). […] An experienced investigator, blind to treatment and neuroimaging data, analyzed the behavioral tests.
# [9] = biological target: T1, MMP‐12 (Homo sapiens, UniProt P39900); experiment: MMP enzyme activity assay; assay type: biochemical; conditions: read-out: MMP Inhibitory Activity (IC50), MMP‐12
# T1 construct: GenScript (contract testing)
# T1 sequence (P39900 106-470, species assumed): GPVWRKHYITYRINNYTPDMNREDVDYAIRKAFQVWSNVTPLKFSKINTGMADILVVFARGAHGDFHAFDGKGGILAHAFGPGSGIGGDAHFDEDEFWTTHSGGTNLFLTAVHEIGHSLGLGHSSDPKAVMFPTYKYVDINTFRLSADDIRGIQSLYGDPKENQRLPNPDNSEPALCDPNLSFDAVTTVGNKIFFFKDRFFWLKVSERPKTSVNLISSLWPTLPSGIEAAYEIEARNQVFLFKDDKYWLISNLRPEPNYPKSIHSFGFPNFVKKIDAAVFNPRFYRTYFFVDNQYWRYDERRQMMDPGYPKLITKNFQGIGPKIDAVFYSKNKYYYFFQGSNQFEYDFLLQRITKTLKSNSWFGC
# Method: […]. Protease stock solutions (10 mmol/L) were diluted with assay buffer to make final test solutions containing no more than 2.0% DMSO. The samples were dispensed into plates; substrate was added and read with PHERAstar PLUS (BMG Labtech, Ortenberg, Germany) plate reader.
# [10] = test system: tissue‐type plasminogen activator–induced fibrinolysis in human blood; set-up: method as in PMID 25686022; conditions: read-out: effective concentration to delay lysis time by 50%; cited from earlier work
# [11] = test system: mouse model of tail bleeding; set-up: method as in PMID 25686022; conditions: CM352 0.01 mg/kg; cited from earlier work
compound,measurement,setting,value
"CNC(=O)c1ccc(Oc2ccc(S(=O)(=O)[C@]3(C(=O)NO)CCC4(CCNCC4)C3)cc2)cc1 [CM352, 4‐[4‐[[(3R)‐3‐(Hydroxycarbamoyl)‐8‐azaspiro[4.5]decan‐3‐yl]sulfonyl]phenoxy]‐N‐methylbenzamide]",cellular fibronectin levels versus control,[1],no differences
same,IC50,[2],> 10000 nM
same,thrombin‐antithrombin complex levels versus control,[3],no differences
same,neurological deficit (Bederson scale),"[4]; 1 mg/kg 3 hours after collagenase, 24 hours (P<0.01) and day 14 (P<0.05) vs control",better neurological function recovery
same,neurological deficit (Bederson scale),"[4]; 1 mg/kg iv 1 hour after collagenase, 24 hours, P<0.01 vs control",better neurological functional recovery
same,neurological deficit (Bederson scale),"[4]; 1 mg/kg iv 1 hour after collagenase, day 14, P<0.01 vs control",beneficial effect of CM352 also being very noticeable
same,off‐target effect on metalloenzyme panel,[5],no significant effect
same,aPTT,[6]; 3 H,21.7 ± 4.5 s
same,aPTT,[6]; 5 H,21.7 ± 4.0 s
same,aPTT,[6]; 24 H,21.7 ± 2.5 s
same,aPTT,[6]; Basal,21.0 ± 4.0 s
same,Kp,"[7]; brain, n=3, read-out: Brain/plasma ratio",0.0193
same,half-life,"[7]; plasma, n=3",1.09 h
same,Cmax,"[7]; plasma, n=3, read-out: Cmax (maximal plasma concentration)",7.8 µM
same,clearance,"[7]; plasma, n=3, read-out: Norm. Cl (normalized clearance) (converted)",7 mL/min/kg
same,Vd,"[7]; plasma, n=3, read-out: Norm. Vz (normalized volume of distribution)",0.66 L/kg
same,maximal plasma concentration,[7],7.8 µmol/L
same,time CM352 remains in blood above 10 nmol/L,[7],8 h
same,sensorimotor recovery (laterality index),[8]; 1 mg/kg 3 hours after collagenase,better sensorimotor recovery
same,sensorimotor recovery (laterality index),[8]; 1 mg/kg iv 1 hour after collagenase,better sensorimotor recovery
same,IC50,[9],7.6 nM
same,EC50,[10],0.7 nM
same,antihemorrhagic efficiency,[11],more potent agent
